This passage reports DISC1 levels and Kd results from patent publication US9981005B2, “Methods for increasing DISC1 in a subject with schizophrenia or bipolar disorder by an antagonist inhibiting DISC1 binding to FBXW7” (The University Court of the University of Glasgow, priority 2013, dated 2018).

pKd: −log10 of the molar value. Where a SMILES comes first, the peptide text is derived from it. [ ]: non-standard residue; d: D form. The star is where a group is joined. pT = C[C@@H](OP(=O)(O)O)[C@H](N)C(=O)O; pS = N[C@@H](COP(=O)(O)O)C(=O)O; Cbz = O=C(OCc1ccccc1)*

In assay [1] the test system is DISC1 levels in HEK293 cells. The experiment in a line: MG132 treatment of HEK293 cells, Western blot for DISC1. It counts as cell-based, human. The following applies: MG132 at various concentrations for 3 hours, FIG. 1. The method, then: The proteasome inhibitor MG132 (N-carbobenzoxyl-Leu-Leu-Leucinal) (Sigma) was dissolved in DMSO to make a stock of 10 mM and stored at −20° C. HEK293 cells were treated with MG132 at various concentrations for 3 hours. The cells were then lysed in 3T3 lysis buffer (20 mM Hepes (pH 7.4), 50 mM NaCl, 50 mM NaF, 10% (v/v) glycerol, 1% (w/v) Triton X-100, 10 mM EGTA, 30 mM sodium pyrophosphate supplemented with protease and phosphatase inhibitor cocktail (Roche)). Proteins were quantified and normalised for protein concentration followed by Western blot analysis for DISC1 and GAPDH.
Lysates were boiled in Laemmli buffer for 2 minutes prior to SDS-PAGE. Lysates were loaded on to a precast 4-12% bis-tris gel (˜10 μg/well). Gels were resolved at 150V (constant) for 90 mins. Proteins were transferred to nitrocellulose membrane at 30V for 1 hour. Membranes were blocked in 5% Milk in 1×TBS-tween20 for 1 hour at room temperature. Primary antibodies were diluted in 1% milk in 1×TBS-tween20 and incubated overnight at 4° C. […] Protein bands were visulised using the Licor Odyssey scanner and analysed using Odyssey software (version 1.2). DISC-1 protein levels were analysed by densitometry and normalised against those of the loading control (GAPDH).
Background: A western blot detects proteins with antibodies after separation by electrophoresis.

In another assay the target is T1, Skp1-FBXW7 (Homo sapiens, UniProt Q969H0).
T1 construct: human FBXW7 (residues 263-707); His6 (N, cleaved yes); made in house; host or cells: Escherichia coli
T1 sequence (Q969H0 263-707): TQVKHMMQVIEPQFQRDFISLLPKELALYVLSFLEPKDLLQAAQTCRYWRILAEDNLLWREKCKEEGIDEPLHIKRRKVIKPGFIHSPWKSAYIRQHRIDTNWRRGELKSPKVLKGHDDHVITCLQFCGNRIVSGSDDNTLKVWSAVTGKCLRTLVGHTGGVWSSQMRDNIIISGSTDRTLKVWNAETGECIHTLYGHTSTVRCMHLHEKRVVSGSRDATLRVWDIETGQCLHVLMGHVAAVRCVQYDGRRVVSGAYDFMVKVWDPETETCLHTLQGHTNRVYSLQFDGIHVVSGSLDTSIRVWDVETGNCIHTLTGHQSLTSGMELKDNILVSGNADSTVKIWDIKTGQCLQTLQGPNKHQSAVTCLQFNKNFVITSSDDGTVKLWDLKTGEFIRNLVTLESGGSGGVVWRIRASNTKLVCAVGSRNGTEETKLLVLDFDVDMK
The experiment in a line: Isothermal titration calorimetry (ITC). It counts as binding. To be noted: ITC at 25° C. How it is done: Affinity of DISC1 analogue peptides (or other binding inhibitors) for FBXW7 may be determined using ITC.
Protein samples are typically dialysed against a solution containing 20 mM HEPES-Na (pH 7.4), 200 mM NaCl, and 2 mM β-mercaptoethanol before combining. Typically, the concentrations of Skp1-FBXW7 and DISC1 peptides used in the assay are 50 μM and 1 mM, respectively.
Titration is performed at 25° C. with a NANO ITC System (TA Instruments, New Castle, Del.) and data analysed using the TA Nano Analyze software. Dissociation constants and their standard deviations are typically derived from two to three independent measurements.
In general terms: ITC needs no label: the signal is the heat of the interaction.

Take `CC(C)C[C@@H](C=O)NC(=O)[C@H](CC(C)C)NC(=O)[C@H](CC(C)C)NC(=O)OCc1ccccc1` [MG132, N-carbobenzoxyl-Leu-Leu-Leucinal] (Cbz-Leu-Leu-Leu-aldehyde): the DISC1 levels result in assay [1] is given as “up-regulates DISC1 levels”.

Consider `CC(C)[C@H](N)C(=O)N1CCC[C@H]1C(=O)N1CCC[C@H]1C(=O)N[C@H](C(=O)N1CCC[C@H]1C(=O)N1CCC[C@H]1C(=O)NCC(=O)N[C@@H](COP(=O)(O)O)C(=O)N[C@@H](Cc1c[nH]cn1)C(=O)O)[C@@H](C)OP(=O)(O)O` [VPPpTPPGpSH] (H-VPP[pT]PPG[pS]H-OH; N-terminus and C-terminus assumed), for which, at Skp1-FBXW7, the pKd is about 6.00.

The pKd is −log10 of the Kd, conventionally taken in molar units. The low end stands for a large Kd, the high end for a small Kd.
